pIC50: −log10 of the molar value.
What was measured:
human V1a receptor = target: T1, human V1a receptor (Homo sapiens, UniProt P37288); test: Cellular in vitro assay for determining vasopressin receptor activity, V1a receptor cell line (CHO, aequorin luminescence); assay type: cell-based; settings: for pIC50: CHO cell line transfected with human V1a receptor, [Arg]-vasopressin at EC50 concentration, read-out: IC50 hV1a; for ratio IC50 hV2/hV1a: selectivity ratio IC50 hV2 / IC50 hV1a
T1 construct: expressed in transfected cells; host or cells: CHO K1 (ATCC), also stably transfected with a modified aequorin
T1 sequence (P37288 whole entry): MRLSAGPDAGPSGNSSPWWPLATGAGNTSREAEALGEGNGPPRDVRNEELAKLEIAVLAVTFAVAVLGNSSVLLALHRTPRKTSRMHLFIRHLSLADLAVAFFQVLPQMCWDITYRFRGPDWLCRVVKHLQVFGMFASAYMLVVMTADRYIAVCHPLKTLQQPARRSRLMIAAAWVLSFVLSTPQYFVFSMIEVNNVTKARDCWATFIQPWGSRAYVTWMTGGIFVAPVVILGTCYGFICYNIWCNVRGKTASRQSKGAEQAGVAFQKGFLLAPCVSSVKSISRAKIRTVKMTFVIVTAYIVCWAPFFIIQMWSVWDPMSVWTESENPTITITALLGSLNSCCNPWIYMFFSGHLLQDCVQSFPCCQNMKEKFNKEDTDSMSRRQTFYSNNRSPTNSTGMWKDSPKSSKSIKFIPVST
Outline: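 Antagonism is measured in stable CHO K1 transfectants coexpressing the Gαq-coupled receptor and a calcium-sensitive aequorin photoprotein. Agonist challenge uses [Arg]-vasopressin at EC50 after a 10-minute compound exposure; IC50 values come from the luminescence signal.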

human V2 receptor = target: T2, human V2 receptor (Homo sapiens, UniProt P30518); test: Cellular in vitro assay for determining vasopressin receptor activity, V2 receptor cell line (CHO, CRE-luciferase); assay type: cell-based; settings: CHO cell line transfected with human V2 receptor; [Arg8]-vasopressin at EC50 concentration, 3 hours; read-out: IC50 hV2
T2 construct: expressed in transfected cells; host or cells: CHO K1 (ATCC) expressing firefly luciferase under a CRE-responsive promoter
T2 sequence (P30518 whole entry): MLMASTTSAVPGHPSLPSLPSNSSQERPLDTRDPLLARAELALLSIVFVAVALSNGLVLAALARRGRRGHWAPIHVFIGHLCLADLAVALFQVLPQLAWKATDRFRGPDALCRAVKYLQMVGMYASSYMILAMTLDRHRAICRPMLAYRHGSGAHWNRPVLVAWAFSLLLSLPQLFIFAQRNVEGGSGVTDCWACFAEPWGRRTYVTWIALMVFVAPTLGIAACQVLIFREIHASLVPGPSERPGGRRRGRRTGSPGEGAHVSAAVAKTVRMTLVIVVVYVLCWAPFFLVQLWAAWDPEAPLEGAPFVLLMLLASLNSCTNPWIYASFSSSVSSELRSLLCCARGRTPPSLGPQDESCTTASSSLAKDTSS

| Compound | pIC50 (human V1a receptor) | ratio IC50 hV2/hV1a (human V1a receptor) | pIC50 (human V2 receptor) |
| --- | --- | --- | --- |
| O=C(Nc1cccnc1-n1cnc(Cn2nc(-c3ccc(Cl)cc3)n(C[C@H](O)C(F)(F)F)c2=O)n1)C1CC1F (stereo partly drawn) [Example 54, N-{2-[3-({3-(4-Chlorophenyl)-5-oxo-4-[(2S)-3,3,3-trifluoro-2-hydroxypropyl]-4,5-dihydro-1H-1,2,4-triazol-1-yl}methyl)-1H-1,2,4-triazol-1-yl]pyridin-3-yl}-2-fluorocyclopropanecarboxamide] | 8.35 | 90.4 | 6.39 |
| O=C(Nc1cccnc1-n1cnc(Cn2nc(-c3ccc(Cl)cc3)n(C[C@H](O)C(F)(F)F)c2=O)n1)C1(F)CC1 [Example 57, N-{2-[3-({3-(4-Chlorophenyl)-5-oxo-4-[(2S)-3,3,3-trifluoro-2-hydroxypropyl]-4,5-dihydro-1H-1,2,4-triazol-1-yl}methyl)-1H-1,2,4-triazol-1-yl]pyridin-3-yl}-1-fluorocyclopropanecarboxamide] | 7.89 | 38.7 | 6.30 |
| O=C(Nc1cccnc1-n1cnc(Cn2nc(-c3ccc(Cl)cc3)n(C[C@H](O)C(F)(F)F)c2=O)n1)C1CS(=O)(=O)C1 [Example 58, N-{2-[3-({3-(4-Chlorophenyl)-5-oxo-4-[(2S)-3,3,3-trifluoro-2-hydroxypropyl]-4,5-dihydro-1H-1,2,4-triazol-1-yl}methyl)-1H-1,2,4-triazol-1-yl]pyridin-3-yl}thietane-3-carboxamide 1,1-dioxide] | 7.71 | 58.3 | 5.94 |
| O=C(Nc1cccnc1-n1cnc(Cn2nc(-c3ccc(Cl)cc3)n(C[C@H](O)C(F)(F)F)c2=O)n1)OCC(F)(F)F [Example 62, 2,2,2-trifluoroethyl {2-[3-({3-(4-chlorophenyl)-5-oxo-4-[(2S)-3,3,3-trifluoro-2-hydroxypropyl]-4,5-dihydro-1H-1,2,4-triazol-1-yl}methyl)-1H-1,2,4-triazol-1-yl]pyridin-3-yl}carbamate] | 7.71 | 49.1 | 6.02 |
| O=C(NCC(F)(F)F)Nc1cccnc1-n1cnc(Cn2nc(-c3ccc(Cl)cc3)n(C[C@H](O)C(F)(F)F)c2=O)n1 [Example 63, 1-{2-[3-({3-(4-Chlorophenyl)-5-oxo-4-[(2S)-3,3,3-trifluoro-2-hydroxypropyl]-4,5-dihydro-1H-1,2,4-triazol-1-yl}methyl)-1H-1,2,4-triazol-1-yl]pyridin-3-yl}-3-(2,2,2-trifluoroethyl)urea] | 8.50 | 366.1 | 5.94 |
| O=c1n(Cc2ncn(-c3cccnc3N3CCOCC3)n2)nc(-c2ccc(Cl)cc2)n1C[C@H](O)C(F)(F)F [Example 64, 5-(4-Chlorophenyl)-2-({1-[2-(morpholin-4-yl)pyridin-3-yl]-1H-1,2,4-triazol-3-yl}methyl)-4-[(2S)-3,3,3-trifluoro-2-hydroxypropyl]-2,4-dihydro-3H-1,2,4-triazol-3-one] | 7.80 | 33.4 | 6.27 |
| CC(C)(N)CNc1ncccc1-n1cnc(Cn2nc(-c3ccc(Cl)cc3)n(C[C@H](O)C(F)(F)F)c2=O)n1 [Example 65, 2-[(1-{2-[(2-Amino-2-methylpropyl)amino]pyridin-3-yl}-1H-1,2,4-triazol-3-yl)methyl]-5-(4-chlorophenyl)-4-[(2S)-3,3,3-trifluoro-2-hydroxypropyl]-2,4-dihydro-3H-1,2,4-triazol-3-one] | 6.72 | 2.0 | 6.42 |
| NC(=O)[C@H]1CCCN1c1ncccc1-n1cnc(Cn2nc(-c3ccc(Cl)cc3)n(C[C@H](O)C(F)(F)F)c2=O)n1 [Example 66, 1-{3-[3-({3-(4-Chlorophenyl)-5-oxo-4-[(2S)-3,3,3-trifluoro-2-hydroxypropyl]-4,5-dihydro-1H-1,2,4-triazol-1-yl}methyl)-1H-1,2,4-triazol-1-yl]pyridin-2-yl}-D-prolinamide] | 7.36 | 8.4 | 6.44 |
| CC(C)(O)CNc1ncccc1-n1cnc(Cn2nc(-c3ccc(Cl)cc3)n(C[C@H](O)C(F)(F)F)c2=O)n1 [Example 67, 5-(4-Chlorophenyl)-2-[(1-{2-[(2-hydroxy-2-methylpropyl)amino]pyridin-3-yl}-1H-1,2,4-triazol-3-yl)methyl]-4-[(2S)-3,3,3-trifluoro-2-hydroxypropyl]-2,4-dihydro-3H-1,2,4-triazol-3-one] | 7.12 | 2.0 | 6.81 |
| NC(=O)[C@@H]1CCCN1c1ncccc1-n1cnc(Cn2nc(-c3ccc(Cl)cc3)n(C[C@H](O)C(F)(F)F)c2=O)n1 [Example 68, 1-{3-[3-({3-(4-Chlorophenyl)-5-oxo-4-[(2S)-3,3,3-trifluoro-2-hydroxypropyl]-4,5-dihydro-1H-1,2,4-triazol-1-yl}methyl)-1H-1,2,4-triazol-1-yl]pyridin-2-yl}-L-prolinamide] | 7.20 | 6.9 | 6.36 |
| O=c1n(Cc2ncn(-c3cccnc3NCCC(F)(F)F)n2)nc(-c2ccc(Cl)cc2)n1C[C@H](O)C(F)(F)F [Example 69, 5-(4-Chlorophenyl)-4-[(2S)-3,3,3-trifluoro-2-hydroxypropyl]-2-[(1-{2-[(3,3,3-trifluoropropyl)amino]pyridin-3-yl}-1H-1,2,4-triazol-3-yl)methyl]-2,4-dihydro-3H-1,2,4-triazol-3-one] | 6.63 | 1.4 | 6.49 |
| O=C1CCC(CNc2ncccc2-n2cnc(Cn3nc(-c4ccc(Cl)cc4)n(C[C@H](O)C(F)(F)F)c3=O)n2)N1 (stereo partly drawn) [Example 70, 5-(4-Chlorophenyl)-2-{[1-(2-{[(5-oxopyrrolidin-2-yl)methyl]amino}pyridin-3-yl)-1H-1,2,4-triazol-3-yl]methyl}-4-[(2S)-3,3,3-trifluoro-2-hydroxypropyl]-2,4-dihydro-3H-1,2,4-triazol-3-one] | 6.82 | 4.6 | 6.16 |
| O=c1n(Cc2ncn(-c3cccnc3NCC(F)(F)F)n2)nc(-c2ccc(Cl)cc2)n1C[C@H](O)C(F)(F)F [Example 71, 5-(4-Chlorophenyl)-2-[(1-{2-[(2,2,2-trifluoroethyl)amino]pyridin-3-yl}-1H-1,2,4-triazol-3-yl)methyl]-4-[(2S)-3,3,3-trifluoro-2-hydroxypropyl]-2,4-dihydro-3H-1,2,4-triazol-3-one] | 6.82 | 1.6 | 6.62 |
| O=c1n(Cc2ncn(-c3cccnc3NCC3CS(=O)(=O)C3)n2)nc(-c2ccc(Cl)cc2)n1C[C@H](O)C(F)(F)F [Example 72, 5-(4-Chlorophenyl)-2-{[1-(2-{[(1,1-dioxidothietan-3-yl)methyl]amino}pyridin-3-yl)-1H-1,2,4-triazol-3-yl]methyl}-4-[(2S)-3,3,3-trifluoro-2-hydroxypropyl]-2,4-dihydro-3H-1,2,4-triazol-3-one] | 5.69 | 15.6 | 4.49 |
| CC(=O)Nc1ncccc1-n1cnc(Cn2nc(-c3ccc(Cl)cc3)n(C[C@H](O)C(F)(F)F)c2=O)n1 [Example 73, N-{3-[3-({3-(4-Chlorophenyl)-5-oxo-4-[(2S)-3,3,3-trifluoro-2-hydroxypropyl]-4,5-dihydro-1H-1,2,4-triazol-1-yl}methyl)-1H-1,2,4-triazol-1-yl]pyridin-2-yl}acetamide] | 7.28 | 13.4 | 6.15 |
| O=C(CC(F)(F)F)Nc1ncccc1-n1cnc(Cn2nc(-c3ccc(Cl)cc3)n(C[C@H](O)C(F)(F)F)c2=O)n1 [Example 74, N-{3-[3-({3-(4-Chlorophenyl)-5-oxo-4-[(2S)-3,3,3-trifluoro-2-hydroxypropyl]-4,5-dihydro-1H-1,2,4-triazol-1-yl}methyl)-1H-1,2,4-triazol-1-yl]pyridin-2-yl}-3,3,3-trifluoropropanamide] | 8.25 | 154.5 | 6.06 |
| O=C(Nc1ncccc1-n1cnc(Cn2nc(-c3ccc(Cl)cc3)n(C[C@H](O)C(F)(F)F)c2=O)n1)C1CC(F)(F)C1 [Example 80, N-{3-[3-({3-(4-Chlorophenyl)-5-oxo-4-[(2S)-3,3,3-trifluoro-2-hydroxypropyl]-4,5-dihydro-1H-1,2,4-triazol-1-yl}methyl)-1H-1,2,4-triazol-1-yl]pyridin-2-yl}-3,3-difluorocyclobutanecarboxamide] | 8.18 | 270.7 | 5.74 |
| O=C(Nc1ncccc1-n1cnc(Cn2nc(-c3ccc(Cl)cc3)n(C[C@H](O)C(F)(F)F)c2=O)n1)C1(C(F)(F)F)CC1 [Example 81, N-{3-[3-({3-(4-Chlorophenyl)-5-oxo-4-[(2S)-3,3,3-trifluoro-2-hydroxypropyl]-4,5-dihydro-1H-1,2,4-triazol-1-yl}methyl)-1H-1,2,4-triazol-1-yl]pyridin-2-yl}-1-(trifluoromethyl)cyclopropanecarboxamide] | 8.69 | 658.5 | 5.87 |
| O=C(Nc1ncccc1-n1cnc(Cn2nc(-c3ccc(Cl)cc3)n(C[C@H](O)C(F)(F)F)c2=O)n1)C1CC1 [Example 83, N-{3-[3-({3-(4-Chlorophenyl)-5-oxo-4-[(2S)-3,3,3-trifluoro-2-hydroxypropyl]-4,5-dihydro-1H-1,2,4-triazol-1-yl}methyl)-1H-1,2,4-triazol-1-yl]pyridin-2-yl}cyclopropanecarboxamide] | 8.27 | 106.5 | 6.24 |

From patent publication US11173151B2, “Substituted triazole derivatives and uses thereof” (BAYER AKTIENGESELLSCHAFT, priority 2017, dated 2021)
